Where two headings read alike, the source gives them in different places.
Tests used:
[1] = In short: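 LCO probes (3 μM) were added to serial two-fold dilutions of carbohydrate suspensions in dH2O, with excitation scanned 300–500 nm and emission at 545 nm. Detection was a reproducible λmax and/or RFU change versus no-carbohydrate control. RFU was regressed linearly against concentration at the λmax or the lowest-background excitation.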
[2] = remark: listed apart in the source
In short: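 LCO probes at 3 μM mixed with serial two-fold carbohydrate dilutions in water (10–0.039 or 5–0.019 mg/ml), run in triplicate. Excitation scanned 300–500 nm with emission at 545 nm; detection based on reproducible λmax or RFU shift against the no-carbohydrate control, with linear regression of RFU on concentration.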

[3] = for RFU change (Correlation analysis) / RFU change (Signal deviation with increasing [Carbohydrate]) / λmax change: 3 μM probe; for RFU change (Correlation analysis): probe-specific excitation λ, emission 545 nm; for RFU change (Signal deviation with increasing [Carbohydrate]) / λmax change: spectral analysis, Excitation 300-500, Emission 545; for carbohydrate can be detected and/or differentiated by the LCO: conclusion from change in signal magnitude and/or shift in λmax; for Gradient Parameters (gradient of regression line) / Linear relationship / Quality of Gradient: linear regression
In short: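 Each LCO probe at 3 μM was added to two-fold serial dilutions of carbohydrate in dH2O (10–0.039 mg/ml for β-1,3-glucan, cellulose, chitin; 5–0.019 mg/ml for the others), run in triplicate. Excitation spectra were scanned 300–500 nm with emission at 545 nm. Detection was a reproducible λmax and/or RFU shift versus negative control, with linear regression of RFU against concentration.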

[4] = remark: listed apart in the source
In short: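 3 μM of each LCO probe was added to serial two-fold carbohydrate dilutions in water (10–0.039 or 5–0.019 mg/ml). Excitation spectra were scanned 300–500 nm with emission at 545 nm, in triplicate. Detection was defined as a reproducible shift in λmax and/or RFU versus negative control, with linear regression of RFU against concentration.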

[5] = for RFU change (Correlation analysis) / RFU change (Signal deviation with increasing [Carbohydrate]): 3 μM probe; for RFU change (Correlation analysis): probe-specific excitation λ, emission 545 nm; for RFU change (Signal deviation with increasing [Carbohydrate]): spectral analysis, Excitation 300-500, Emission 545; for Gradient Parameters (gradient of regression line) / Linear relationship / Quality of Gradient: linear regression
In short: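 LCO probes at 3 μM mixed with serial twofold carbohydrate dilutions in dH2O (10–0.039 or 5–0.019 mg/ml, depending on carbohydrate). Excitation scanned 300–500 nm, emission read at 545 nm; detection defined as reproducible shift in λmax and/or RFU relative to negative control, with linear regression of RFU against concentration.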

[6] = for RFU change (Correlation analysis): probe-specific excitation λ, emission 545 nm
In short: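 LCO probes at 3 μM mixed with serial two-fold dilutions of carbohydrate in dH2O (10–0.039 or 5–0.019 mg/ml, depending on carbohydrate), in triplicate. Excitation scanned 300–500 nm or fixed per probe (λmax or lowest background), emission at 545 nm. Detection taken as reproducible λmax/RFU shift vs no-carbohydrate control; RFU regressed linearly on concentration.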

[7] = sodium alginate concentration vs RFU, linear regression
[8] = glucose concentration vs RFU, linear regression
[9] = β-1,3-glucan concentration vs RFU
[10] = Chondroitin Sulfate A 5-0.019 mg/ml, 3 μM probe, spectral analysis, Excitation 300-500, Emission 545
[11] = Chondroitin Sulfate A concentration vs RFU, linear regression
[12] = Cellulobiose 5-0.019 mg/ml, 3 μM probe, spectral analysis, Excitation 300-500, Emission 545
[13] = amylose concentration vs RFU, linear regression

NCCCC[C@H](NC(=O)Cc1cc(-c2cccs2)sc1-c1ccc(-c2sc(-c3cccs3)cc2CC(=O)N[C@@H](CCCCN)C(=O)[O-])s1)C(=O)[O-].[Na+].[Na+] [pHTA-Lys, penta Hydrogen Thiophene Acetic acid Lysine]
RFU change (Correlation analysis) ([1]; Sodium alginate 5-0.019 mg/ml, 3 μM probe, probe-specific excitation λ, emission 545 nm): Increases
RFU change (Signal deviation with increasing [Carbohydrate]) ([1]; Sodium alginate 5-0.019 mg/ml, 3 μM probe, spectral analysis, Excitation 300-500, Emission 545): Increases
carbohydrate can be detected and/or differentiated by the LCO ([1]; Sodium alginate, conclusion from change in signal magnitude and/or shift in λmax): can be detected and/or differentiated
Gradient Parameters (gradient of regression line) [1, 7]: 55.4 ± 5.3
Linear relationship [1, 7]: Significant
Quality of Gradient [1, 7]: Positive
Sensitivity ([1]; to sodium alginate): Yes
RFU change (Correlation analysis) ([2]; Glucose 5-0.019 mg/ml, 3 μM probe, probe-specific excitation λ, emission 545 nm): Unclear
RFU change (Signal deviation with increasing [Carbohydrate]) ([2]; Glucose 5-0.019 mg/ml, 3 μM probe, spectral analysis, Excitation 300-500, Emission 545): Unclear
Gradient Parameters (gradient of regression line) [2, 8]: 23.6 ± 13.7
Quality of Gradient [2, 8]: Horizontal
Sensitivity ([2]; to glucose): No
RFU change (Correlation analysis) ([3]; Cellulose 10-[…]): Increase
RFU change (Signal deviation with increasing [Carbohydrate]) ([3]; Cellulose 10-[…]): Increase
λmax change ([3]; Cellulose 10-[…]): Redshift
carbohydrate can be detected and/or differentiated by the LCO ([3]; Cellulose): can be detected and/or differentiated
RFU change (Correlation analysis) ([3]; Chitin 10-[…]): Increases
RFU change (Signal deviation with increasing [Carbohydrate]) ([3]; Chitin 10-[…]): Increases
λmax change ([3]; Chitin 10-[…]): Redshift
carbohydrate can be detected and/or differentiated by the LCO ([3]; Chitin): can be detected and/or differentiated
Gradient Parameters (gradient of regression line) ([3]; cellulose concentration vs RFU): 291.8 ± 46.6
Linear relationship ([3]; cellulose concentration vs RFU): Significant
Quality of Gradient ([3]; cellulose concentration vs RFU): Positive
Gradient Parameters (gradient of regression line) ([3]; chitin concentration vs RFU): 273.8 ± 46.2
Linear relationship ([3]; chitin concentration vs RFU): Significant
Quality of Gradient ([3]; chitin concentration vs RFU): Positive
Sensitivity ([3]; to cellulose): Yes
Sensitivity ([3]; to chitin): Yes
Sensitivity ([3]; to β-1,3-glucan): Yes
carbohydrate can be detected and/or differentiated by the LCO ([3]; β-1,3-Glucan): can be detected and/or differentiated
RFU change (Correlation analysis) ([3]; β-1,3-glucan 10-[…]): Increase
RFU change (Signal deviation with increasing [Carbohydrate]) ([3]; β-1,3-glucan 10-[…]): Decrease
Gradient Parameters (gradient of regression line) [3, 9]: 107.9 ± 16.4
Quality of Gradient [3, 9]: Positive
RFU change (Correlation analysis) ([4]; Chondroitin Sulfate A 5-0.019 mg/ml, 3 μM probe, probe-specific excitation λ, emission 545 nm): Increases
RFU change (Signal deviation with increasing [Carbohydrate]) [4, 10]: Decreases
λmax change [4, 10]: No change
Gradient Parameters (gradient of regression line) [4, 11]: 194.8 ± 19.2
Linear relationship [4, 11]: Significant
Quality of Gradient [4, 11]: Positive
carbohydrate can be detected and/or differentiated by the LCO ([4]; Chondroitin sulfate A, conclusion from change in signal magnitude and/or shift in λmax): can be detected and/or differentiated
Sensitivity ([4]; to Chondroitin Sulfate A): Yes
RFU change (Correlation analysis) ([5]; Glycogen 5-0.019 mg/ml): Increases
RFU change (Signal deviation with increasing [Carbohydrate]) ([5]; Glycogen 5-0.019 mg/ml): Increases
carbohydrate can be detected and/or differentiated by the LCO ([5]; Glycogen, conclusion from change in signal magnitude and/or shift in λmax): can be detected and/or differentiated
RFU change (Correlation analysis) ([5]; Heparin 5-0.019 mg/ml): Increases
RFU change (Signal deviation with increasing [Carbohydrate]) ([5]; Heparin 5-0.019 mg/ml): Increases
Gradient Parameters (gradient of regression line) ([5]; glycogen concentration vs RFU): 43.6 ± 7.9
Linear relationship ([5]; glycogen concentration vs RFU): Significant
Quality of Gradient ([5]; glycogen concentration vs RFU): Positive
Gradient Parameters (gradient of regression line) ([5]; heparin concentration vs RFU): 48.4 ± 18.2
Linear relationship ([5]; heparin concentration vs RFU): Significant
Quality of Gradient ([5]; heparin concentration vs RFU): Positive
Sensitivity ([5]; to glycogen): Yes
Sensitivity ([5]; to heparin): Yes
RFU change (Correlation analysis) ([6]; Amylose 5-0.019 mg/ml, 3 μM probe): Increases
RFU change (Signal deviation with increasing [Carbohydrate]) ([6]; Amylose 5-0.019 mg/ml, 3 μM probe, spectral analysis, Excitation 300-500, Emission 545): Increases
carbohydrate can be detected and/or differentiated by the LCO ([6]; Amylose, conclusion from change in signal magnitude and/or shift in λmax): can be detected and/or differentiated
RFU change (Correlation analysis) ([6]; Cellulobiose 5-0.019 mg/ml, 3 μM probe): Unclear
RFU change (Signal deviation with increasing [Carbohydrate]) [6, 12]: Unclear
λmax change [6, 12]: No change
Gradient Parameters (gradient of regression line) [6, 13]: 47.7 ± 18.5
Linear relationship [6, 13]: Significant
Quality of Gradient [6, 13]: Positive
Quality of Gradient ([6]; cellulobiose concentration vs RFU, linear regression): Horizontal
Sensitivity ([6]; to amylose): Yes
Sensitivity ([6]; to cellulobiose): No

Reference: patent US9958439B2, “Carbohydrate detection” (RICHTER LIFE SCIENCE DEVELOPMENT AB, priority 2012, dated 2018)
